# Data as given in PubChem BioAssay AID2060490 (Molecular Pharmacology Branch, DTP, NCI, 2025).
# Tested on: 885512-296-R-J2-PDC complex spheroid viability
# Test: Anticancer human tumor 885512-296-R-J2-PDC patient-derived breast carcinoma cell line growth inhibition [GQUAD]
# Conditions: for IC50: curve of first compound; for viability, T/C: stronger effect = lower value
# From the text: DNA G-quadruplex Stabilizer Agents in Combinations in Complex Spheroids
# A high-throughput screen of multi-cell type tumor spheroids was designed to identify active combinations of DNA G-quadruplex stabilizer agents and targeted small molecules. Complex spheroids include a stromal component modeled by human endothelial cells (HUVEC) and fibroblasts modeled by human mesenchymal stem cells (MSCs). The concentration ranges selected for each drug and investigational agent were based upon clinically achievable concentrations if the clinical Cmax of the agent was known.
# Compounds. The drugs and investigational agents: pidnarulex (CX-5461; NSC782164), APTO-253 (NSC789042), BRACO-19 (NSC847499), peposertib (NSC802822), ceralasertib (NSC780249), elimusertib (NSC800525), camonsertib (NSC841442), AZD-1390 (NSC803789), olaparib (NSC753686), talazoparib (NSC767125), ART-558 (NSC835418), sotorasib (NSC818433), MRTX-1133 (NSC836407), SN-38 (NSC673596), topotecan (NSC609699), etoposide (NSC141540), doxorubicin (NSC123127), gemcitabine (NSC613327), 5-fluorouracil (NSC19893), paclitaxel (NSC125973), vemurafenib (NSC761431), panobinostat (NSC761190), R-306465 (JNJ-16241199; NSC773264), adavosertib (NSC754352), TP-3654 (NSC805149), carboplatin (NSC241240), KSQ-4279 (NSC840948), and staurosporine (NSC755774) were obtained from the National Cancer Institute (NCI) Developmental Therapeutics Program Chemical Repository (34). The FDA-approved anticancer drug set is available from the NCI Developmental Therapeutics Program. […] The stock solutions were prepared in dimethyl sulfoxide (DMSO, Sigma-Aldrich, St. Louis, MO, cat. D2650) at 800-fold the tested concentration and stored at -70 degrees C prior to their use. All drugs and investigational agents were tested over a range starting from a high concentration at or near the clinical Cmax and decreasing in half-log increments. If the clinical Cmax for an agent had not been determined, the highest concentration tested was 10 microM.
# 2.3 Cell Culture. All cells were maintained in an incubator at 37 degrees C and 5% CO2 with 95% humidity. The PDC lines were cultured according to standard operating procedures established by the NCI PDMR. All PDCs were thawed and cultured in Matrigel-coated flasks prepared with a working solution of 1X Ham's F-12 nutrient mix, without supplementation (Invitrogen, cat. 11765054), 100 U/mL penicillin-streptomycin (Invitrogen, cat. 15140122), and 2.5% Matrigel (Corning Inc., cat. 354248) for the first three passages. The 857933-349-R-J2-PDC line was cultured in 6C/Colon 1B media, which includes advanced DMEM/F-12 (Thermo Fisher Scientific, cat. 12634028), 10 mM HEPES (Thermo Fisher Scientific, cat. 15630080), 1X GlutaMAX supplement (Thermo Fisher Scientific, cat. 35050061), 0.1 mg/mL primocin (InvivoGen, cat. ant-pm-2), 10% defined fetal bovine serum, heat inactivated (HyClone Laboratories Inc., cat. SH30070.03HI), 50% L-WRN conditioned media (ATCC, cat. CRL-3276), 1.25 mM N-Acetyl-L-cysteine (Sigma-Aldrich, cat. A9165), 10 mM nicotinamide (Sigma-Aldrich, cat. N0636), 1X B-27 supplement (Thermo Fisher Scientific, cat. 17504044), 1X N-2 supplement (Thermo Fisher Scientific, cat. 17502048), 10 microM Y-27632 dihydrochloride (Tocris Bioscience, cat. 1254), and 50 ng/mL human EGF recombinant protein (Thermo Fisher Scientific, cat. PHG0311). The 485176-168-R4-J1-PDC line was cultured in Panc media, which includes all 6C/Colon 1B media components plus 100 ng/mL human FGF-10 (Thermo Fisher Scientific, cat. 100-26), 500 nM SB-431542 (Selleckchem, cat. S1067), and gastrin (Tocris, cat. 3006).
# […]
# [1] = second compound 0.0316 µM, first compound 0.0316 µM
# [2] = second compound 0.0316 µM, first compound 0.316 µM
# [3] = second compound 0.1 µM, first compound 0.0316 µM
# [4] = second compound 0.1 µM, first compound 0.316 µM
# [5] = second compound 0.316 µM, first compound 0.0316 µM
# [6] = second compound 0.316 µM, first compound 0.316 µM
# [7] = second compound 1 µM, first compound 0.0316 µM
# [8] = second compound 1 µM, first compound 0.316 µM
# [9] = second compound 3.16 µM, first compound 0.0316 µM
# [10] = second compound 3.16 µM, first compound 0.316 µM
# [11] = second compound 10 µM, first compound 0.0316 µM
# [12] = second compound 10 µM, first compound 0.316 µM
# 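Further: spheroids exposed to the compounds for one week.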
# 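Wherever viability, T/C is given: percent of tumor spheroid viability relative to DMSO vehicle control wells.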
structure (smiles),measurement,setting,value
CCc1c2c(nc3ccc(O)cc13)-c1cc3c(c(=O)n1C2)COC(=O)[C@]3(O)CC + CN(C)c1ccc(Nc2c3ccc(NC(=O)CCN4CCCC4)cc3nc3cc(NC(=O)CCN4CCCC4)ccc23)cc1,IC50,second compound 0.0316 µM,< 0.999 nM
same,IC50,second compound 0.1 µM,< 0.999 nM
same,IC50,second compound 0.316 µM,< 0.999 nM
same,IC50,second compound 1 µM,< 0.999 nM
same,IC50,second compound 3.16 µM,< 0.999 nM
same,IC50,second compound 10 µM,< 0.999 nM
same,"viability, T/C","second compound 0.0316 µM, first compound 0.000999 µM",18.3%
same,"viability, T/C","second compound 0.0316 µM, first compound 0.00316 µM",6.69%
same,"viability, T/C","second compound 0.0316 µM, first compound 0.00999 µM",3.15%
same,"viability, T/C",[1],1.94%
same,"viability, T/C","second compound 0.0316 µM, first compound 0.0999 µM",1.66%
same,"viability, T/C",[2],1.39%
same,"viability, T/C","second compound 0.1 µM, first compound 0.000999 µM",15.7%
same,"viability, T/C","second compound 0.1 µM, first compound 0.00316 µM",7.02%
same,"viability, T/C","second compound 0.1 µM, first compound 0.00999 µM",3.83%
same,"viability, T/C",[3],2.59%
same,"viability, T/C","second compound 0.1 µM, first compound 0.0999 µM",1.42%
same,"viability, T/C",[4],1.57%
same,"viability, T/C","second compound 0.316 µM, first compound 0.000999 µM",13.1%
same,"viability, T/C","second compound 0.316 µM, first compound 0.00316 µM",7.17%
same,"viability, T/C","second compound 0.316 µM, first compound 0.00999 µM",3.49%
same,"viability, T/C",[5],2.63%
same,"viability, T/C","second compound 0.316 µM, first compound 0.0999 µM",1.58%
same,"viability, T/C",[6],1.1%
same,"viability, T/C","second compound 1 µM, first compound 0.000999 µM",19.3%
same,"viability, T/C","second compound 1 µM, first compound 0.00316 µM",6.88%
same,"viability, T/C","second compound 1 µM, first compound 0.00999 µM",3.62%
same,"viability, T/C",[7],2.24%
same,"viability, T/C","second compound 1 µM, first compound 0.0999 µM",1.82%
same,"viability, T/C",[8],1.23%
same,"viability, T/C","second compound 3.16 µM, first compound 0.000999 µM",18.7%
same,"viability, T/C","second compound 3.16 µM, first compound 0.00316 µM",11.3%
same,"viability, T/C","second compound 3.16 µM, first compound 0.00999 µM",4.83%
same,"viability, T/C",[9],2.33%
same,"viability, T/C","second compound 3.16 µM, first compound 0.0999 µM",1.61%
same,"viability, T/C",[10],1.26%
same,"viability, T/C","second compound 10 µM, first compound 0.000999 µM",12.8%
same,"viability, T/C","second compound 10 µM, first compound 0.00316 µM",10.4%
same,"viability, T/C","second compound 10 µM, first compound 0.00999 µM",6.78%
same,"viability, T/C",[11],3.28%
same,"viability, T/C","second compound 10 µM, first compound 0.0999 µM",1.43%
same,"viability, T/C",[12],0.56%
COc1cc(C2c3cc4c(cc3C(OC3OC5COC(C)OC5C(O)C3O)C3COC(=O)C23)OCO4)cc(OC)c1O (centres undefined) + CN(C)c1ccc(Nc2c3ccc(NC(=O)CCN4CCCC4)cc3nc3cc(NC(=O)CCN4CCCC4)ccc23)cc1,IC50,second compound 0.0316 µM,590 nM
same,IC50,second compound 0.1 µM,641 nM
same,IC50,second compound 0.316 µM,584 nM
same,IC50,second compound 1 µM,574 nM
same,IC50,second compound 3.16 µM,614 nM
same,IC50,second compound 10 µM,< 31.6 nM
same,"viability, T/C",[1],106%
same,"viability, T/C","second compound 0.0316 µM, first compound 0.1 µM",96.7%
same,"viability, T/C",[2],73%
same,"viability, T/C","second compound 0.0316 µM, first compound 1 µM",30.5%
same,"viability, T/C","second compound 0.0316 µM, first compound 3.16 µM",13.4%
same,"viability, T/C","second compound 0.0316 µM, first compound 10 µM",8.11%
same,"viability, T/C",[3],106%
same,"viability, T/C","second compound 0.1 µM, first compound 0.1 µM",94.4%
same,"viability, T/C",[4],77.1%
same,"viability, T/C","second compound 0.1 µM, first compound 1 µM",33.1%
same,"viability, T/C","second compound 0.1 µM, first compound 3.16 µM",13.5%
same,"viability, T/C","second compound 0.1 µM, first compound 10 µM",9.28%
same,"viability, T/C",[5],100%
same,"viability, T/C","second compound 0.316 µM, first compound 0.1 µM",111%
same,"viability, T/C",[6],73.3%
same,"viability, T/C","second compound 0.316 µM, first compound 1 µM",28.8%
same,"viability, T/C","second compound 0.316 µM, first compound 3.16 µM",13%
same,"viability, T/C","second compound 0.316 µM, first compound 10 µM",7.51%
same,"viability, T/C",[7],88.4%
same,"viability, T/C","second compound 1 µM, first compound 0.1 µM",97.5%
same,"viability, T/C",[8],72.5%
same,"viability, T/C","second compound 1 µM, first compound 1 µM",28.2%
same,"viability, T/C","second compound 1 µM, first compound 3.16 µM",13.1%
same,"viability, T/C","second compound 1 µM, first compound 10 µM",7.5%
same,"viability, T/C",[9],88.5%
same,"viability, T/C","second compound 3.16 µM, first compound 0.1 µM",83.8%
same,"viability, T/C",[10],78.8%
same,"viability, T/C","second compound 3.16 µM, first compound 1 µM",28.8%
same,"viability, T/C","second compound 3.16 µM, first compound 3.16 µM",14.4%
same,"viability, T/C","second compound 3.16 µM, first compound 10 µM",10.3%
same,"viability, T/C",[11],18.7%
same,"viability, T/C","second compound 10 µM, first compound 0.1 µM",24%
same,"viability, T/C",[12],22.1%
same,"viability, T/C","second compound 10 µM, first compound 1 µM",11.4%
same,"viability, T/C","second compound 10 µM, first compound 3.16 µM",10.1%
same,"viability, T/C","second compound 10 µM, first compound 10 µM",8.35%
